From PubChem BioAssay (NCI)
Several values for one entry are separate records, joined by “and”; a condition that tells them apart may be missing. Identical values can stand only once.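 How tested: cells in 96-well plates exposed to compound for 48 hours at five concentrations. At the GI50, growth is halved. TGI denotes the concentration required for complete inhibition of growth.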

Columns and labels:
Experiment in all cases: NCI anticancer screen, dose series, 48 h
[1] = tested on: A549 NSCLC
[2] = tested on: HCT-15 colon
[3] = tested on: HS 578T breast
[4] = tested on: M14 melanoma
[5] = tested on: MCF7 breast
[6] = tested on: MDA-MB-435
[7] = tested on: NCI-H522 lung
[8] = tested on: OVCAR-4 ovarian
[9] = tested on: TK-10 renal
[10] = tested on: UO-31 renal

| SMILES | GI50 [1] | TGI [1] | GI50 [2] | TGI [2] | GI50 [3] | TGI [3] | GI50 [4] | TGI [4] | GI50 [5] | TGI [5] | GI50 [6] | TGI [6] | GI50 [7] | TGI [7] | GI50 [8] | TGI [8] | GI50 [9] | TGI [9] | GI50 [10] | TGI [10] |
| --- | --- | --- | --- | --- | --- | --- | --- | --- | --- | --- | --- | --- | --- | --- | --- | --- | --- | --- | --- | --- |
| O=C(Nc1ncc([N+](=O)[O-])s1)c1cccc([N+](=O)[O-])c1 | 4.24 µM | 42.5 µM | 6110 nM | > 100 µM | 1.72 µM | > 28.4 µM | 3.85 µM | 24.1 µM | 3020 nM | > 88.2 µM | 3160 nM | 20.9 µM | 3180 nM | 65.9 µM | 3.97 µM | > 100 µM | 4.59 µM | 37.3 µM | 2550 nM | 9.87 µM |
| c1ccc(Oc2c3ccccc3nc3ccccc23)cc1 | 4.62 µM | 27 µM | 3060 nM | 12.3 µM | 6.99 µM | > 100 µM | 3.4 µM | 10.7 µM | 2480 nM | 17.5 µM | 1770 nM | 6.16 µM | 2220 nM | 10.7 µM | 4.33 µM | 21.2 µM | – | – | 5640 nM | 19.1 µM |
| O=C1NC(=O)[C@@H](c2cn3c4c(cccc24)CCC3)[C@@H]1c1c[nH]c2ccccc12 | 0.617 µM and 0.516 µM | > 10 µM and 16.4 µM | 338 nM and 505 nM | > 10 µM and 14.9 µM | 0.343 µM and 0.323 µM | > 10 µM and 20.9 µM | 0.31 µM and 0.372 µM | > 10 µM and 10.8 µM | 246 nM and 331 nM | > 10 µM and 12.8 µM | 146 nM and 125 nM | 0.431 µM and 0.367 µM | 201 nM and 365 nM | – | 1.58 µM and 1.12 µM | > 10 µM and 20.2 µM | 0.57 µM and 4.7 µM | > 10 µM and 35.5 µM | 552 nM and 519 nM | > 10 µM and 27.1 µM |
| CC(=O)C(C(=N)C#N)C(=O)Nc1ccccc1 (stereo unspecified) | – | > 100 µM | – | > 100 µM | – | > 100 µM | – | > 100 µM | – | > 100 µM | – | > 100 µM | – | > 100 µM | – | > 100 µM | – | > 100 µM | – | – |
| O=C(CCl)Nc1ccccc1SCc1cc(Cl)cc2c1OCOC2 | 20.2 µM | 45.1 µM | 6400 nM | 21.6 µM | 6.25 µM | 38.9 µM | 4.68 µM | 16.8 µM | 3410 nM | 15.4 µM | 2870 nM | 11.1 µM | 1850 nM | 4 µM | 3.14 µM | 12.5 µM | 16.9 µM | 31.4 µM | 2950 nM | 15 µM |
| COc1cc(/C=C2\CC(C)CC3C2=NN(c2ccccc2)C3c2cc(OC)c(OC)c(OC)c2)cc(OC)c1OC (stereo unspecified) | 14.9 µM | > 100 µM | 11200 nM | 25.6 µM | 18.4 µM | 81.2 µM | 14.9 µM | 52.1 µM | 10600 nM | > 100 µM | 8530 nM | 47.7 µM | 10200 nM | 59.3 µM | 14.2 µM | > 100 µM | 24.3 µM | 93.3 µM | 22000 nM | > 100 µM |
| O=C(CSc1nc2ccc([N+](=O)[O-])cc2[nH]1)Nc1cccc(C(F)(F)F)c1 | 2.3 µM | 12.7 µM | 2740 nM | 12.7 µM | 2.45 µM | 10.7 µM | 3.17 µM | 14.9 µM | 1950 nM | 9.44 µM | 2500 nM | 12.8 µM | 1550 nM | 9.05 µM | 1.61 µM | 14.5 µM | 3.14 µM | 10.9 µM | 1810 nM | 8.9 µM |
| C[C@@H](Oc1cc(-c2cnn(C3CCNCC3)c2)cnc1N)c1c(Cl)ccc(F)c1Cl | 0.947 µM | > 10 µM | 2400 nM | > 10 µM | 0.966 µM | 6.25 µM | 1.08 µM | 2.65 µM | 457 nM | 2.43 µM | 715 nM | > 10 µM | 1300 nM | 3.2 µM | – | > 10 µM | 2.76 µM | > 10 µM | 1080 nM | 4.74 µM |
| Cc1cc(S(=O)(=O)Nc2nnc(-c3ccco3)c(-c3ccco3)n2)c(SCc2ccccc2)cc1Cl | 34.7 µM | > 100 µM | 21100 nM | 43.3 µM | 29.7 µM | 64.9 µM | 25.8 µM | 55.5 µM | 26700 nM | 61.9 µM | 25400 nM | 49.6 µM | 24800 nM | 65.7 µM | 22 µM | 41.6 µM | 26.7 µM | 74.8 µM | 21700 nM | 50.4 µM |
| COc1cccc(-c2nc(-c3ccc(NS(=O)(=O)c4ccccc4)cc3)[nH]c2-c2ccnc(Br)c2)c1 | 3.11 µM | > 100 µM | – | – | 1.71 µM | 5.17 µM | 2.03 µM | 6.09 µM | 2640 nM | > 100 µM | 2510 nM | 9.21 µM | 2930 nM | > 100 µM | 3.84 µM | > 100 µM | 3.72 µM | > 100 µM | 2290 nM | 6.89 µM |
| Clc1ccc(N2COOC3(OOC2)C2CC4CC(C2)CC3C4)cc1 | 5.18 µM | > 100 µM | 864 nM | > 41.9 µM | 8.99 µM | > 100 µM | 1.48 µM | > 100 µM | 3980 nM | > 46.1 µM | 1610 nM | 13.2 µM | 1750 nM | 6.91 µM | 5.52 µM | > 59.5 µM | 4.98 µM | 10.5 µM | 579 nM | 2.21 µM |
| O=P(Oc1ccccc1)(Oc1ccccc1)C(O)c1ccccc1 (stereo unspecified) | > 100 µM | > 100 µM | > 100000 nM | > 100 µM | 45.9 µM | > 100 µM | > 100 µM | > 100 µM | > 100000 nM | > 100 µM | 74000 nM | > 100 µM | 25400 nM | > 100 µM | 58.2 µM | > 100 µM | > 100 µM | > 100 µM | 29800 nM | > 100 µM |
| C=C(CN1CCc2ccccc2C1)c1ccc(/C=C/C(=O)Nc2ccccc2N)cc1 | 1.79 µM | > 100 µM | 1690 nM | 62.9 µM | 17.1 µM | > 100 µM | – | – | 2370 nM | > 100 µM | 4890 nM | 80.7 µM | 783 nM | 14.7 µM | 45.4 µM | > 100 µM | 3.88 µM | 26.9 µM | 437 nM | > 100 µM |
